Experimental data taken from patent US8350027B2, “Dual-acting pyrazole antihypertensive agents” (Theravance, Inc., priority 2009, dated 2013).

Tests used:
human AT1 receptor = biological target: T1, human AT1 receptor (Homo sapiens, UniProt P30556); assay: AT1 radioligand binding assay (displacement of [Eu]AngII); conditions: membranes of CHO-K1 cells expressing cloned human AT1 receptor; values given as lower bounds; read-out: AT1 pKi (converted)
T1 construct: expressed in transfected cells; host or cells: CHO-K1
T1 sequence (P30556 1-359): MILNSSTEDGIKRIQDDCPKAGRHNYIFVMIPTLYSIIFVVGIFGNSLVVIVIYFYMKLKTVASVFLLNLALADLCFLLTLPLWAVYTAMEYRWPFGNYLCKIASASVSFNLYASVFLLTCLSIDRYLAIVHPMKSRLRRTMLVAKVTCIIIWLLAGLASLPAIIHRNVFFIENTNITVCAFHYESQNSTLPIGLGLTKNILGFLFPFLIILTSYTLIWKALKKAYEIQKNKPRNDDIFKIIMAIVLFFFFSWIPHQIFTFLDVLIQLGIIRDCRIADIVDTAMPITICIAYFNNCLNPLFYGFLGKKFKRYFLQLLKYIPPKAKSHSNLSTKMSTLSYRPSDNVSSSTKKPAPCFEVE
Procedure, shortened: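 Membranes from CHO-K1 cells stably expressing cloned human AT1, 0.2 μg protein, in 50 mM Tris/HCl pH 7.5, 5 mM MgCl2, 0.025% BSA. Compounds displaced [Eu]AngII over 120 min in the dark at room temperature or 37° C; filter-bound TRF read. Nonspecific binding with 10 μM angiotensin II; IC50 converted to Ki via Cheng-Prusoff, reported as pKi.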

NEP enzyme = biological target: T2, NEP enzyme (Homo sapiens, UniProt P08473); assay: NEP enzyme inhibition assay (fluorogenic peptide substrate); assay type: biochemical; conditions: values given as lower bounds; * = prodrugs, may not exhibit NEP activity in an in vitro assay; read-out: NEP pIC50 (converted)
T2 construct: purchased R&D Systems, Minneapolis, Minn; 1182-ZN
T2 sequence (P08473 52-750 limits assumed): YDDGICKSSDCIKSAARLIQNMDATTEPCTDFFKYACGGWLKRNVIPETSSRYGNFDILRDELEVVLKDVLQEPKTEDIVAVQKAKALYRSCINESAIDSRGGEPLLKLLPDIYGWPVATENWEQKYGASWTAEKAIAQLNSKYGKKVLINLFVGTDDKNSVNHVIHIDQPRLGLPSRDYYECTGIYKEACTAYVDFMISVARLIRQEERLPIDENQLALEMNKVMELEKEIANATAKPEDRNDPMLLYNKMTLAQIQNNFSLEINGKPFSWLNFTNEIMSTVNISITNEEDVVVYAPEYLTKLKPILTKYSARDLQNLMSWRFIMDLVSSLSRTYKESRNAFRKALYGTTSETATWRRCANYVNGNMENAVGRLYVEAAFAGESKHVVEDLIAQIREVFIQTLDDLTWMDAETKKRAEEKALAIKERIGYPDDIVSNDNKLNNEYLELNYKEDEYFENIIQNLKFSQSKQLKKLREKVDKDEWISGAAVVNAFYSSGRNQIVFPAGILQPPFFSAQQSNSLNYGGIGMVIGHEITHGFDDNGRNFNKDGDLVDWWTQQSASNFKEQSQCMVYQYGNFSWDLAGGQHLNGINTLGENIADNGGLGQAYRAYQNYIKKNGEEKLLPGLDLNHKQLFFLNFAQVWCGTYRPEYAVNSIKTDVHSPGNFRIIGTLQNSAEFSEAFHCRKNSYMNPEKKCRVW
Procedure, shortened: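 Recombinant human NEP was run with Mca-BK2 (10 μM) at room temperature in Tris buffer with 1 μM Zn. Compounds (10 μM–20 pM, 12 points) were pre-equilibrated 10 min, then reacted 20 min and acid-stopped. Fluorescence ex 320/em 405 nm, one-site competition fit gives pIC50. Thiol compounds may be pre-treated with 400 μM TCEP.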

Ki (human AT1 receptor) [nM] | IC50 (NEP enzyme) [nM] | SMILES
≤ 10 | ≤ 1000 | CCCc1cc(C(=O)N[C@@H](CC(=O)O)Cc2ccccc2Cl)nn1Cc1cnc(-c2ccccc2S(=O)(=O)NC(C)=O)cn1 [Example 17-6, (R)-3-({1-[5-(2-Acetylsulfamoyl-phenyl)-pyrazin-2-ylmethyl]-5-propyl-1H-pyrazole-3-carbonyl}amino)-4-(2-chloro-phenyl)butyric acid]
≤ 10 | ≤ 10000 | CCCc1cc(C(=O)N[C@@H](CC(=O)O)Cc2ccccc2C)nn1Cc1ccc(-c2ccccc2-c2nnn[nH]2)cc1 [Example 3-35, (R)-3-({5-Propyl-1-[2′-(1H-tetrazol-5-yl)biphenyl-4-ylmethyl]-1H-pyrazole-3-carbonyl}amino)-4-o-tolylbutyric acid]
≤ 100 | ≤ 100 | CCCc1cc(C(=O)N[C@H](Cc2ccccc2)[C@@H](O)C(=O)O)nn1Cc1ccc(-c2ccccc2S(=O)(=O)NC(C)=O)cn1 [Example 15-3, (2R,3R)-3-({1-[5-(2-Acetylsulfamoylphenyl)pyridin-2-ylmethyl]-5-propyl-1H-pyrazole-3-carbonyl}amino)-2-hydroxy-4-phenylbutyric acid]
≤ 100 | ≤ 10000 | CCOc1cc(C(=O)N[C@@H](CC(=O)O)Cc2ccccc2)nn1Cc1ccc(-c2ccccc2-c2nnn[nH]2)cc1 [Example 3-32, (R)-3-({5-Ethoxy-1-[2′-(1H-tetrazol-5-yl)biphenyl-4-ylmethyl]-1H-pyrazole-3-carbonyl}amino)-4-phenylbutyric acid]
≤ 10 | ≤ 10000 | CCCc1cc(C(=O)N[C@@H](CC(=O)OC)Cc2ccccc2C)nn1Cc1ccc(-c2ccccc2-c2nnn[nH]2)cc1 [Example 3-29, (R)-3-({5-Propyl-1-[2′-(1H-tetrazol-5-yl)-biphenyl-4-ylmethyl]-1H-pyrazole-3-carbonyl}amino)-4-o-tolyl-butyric acid methyl ester]
≤ 10 | ≤ 1000 | CCCc1cc(C(=O)N[C@@H](CC(=O)O)Cc2ccccc2)nn1Cc1ccc(-c2ccccc2-n2nn[nH]c2=O)cc1 [Example 16-4, (R)-3-({1-[2′-(5-Oxo-4,5-dihydrotetrazol-1-yl)biphenyl-4-ylmethyl]-5-propyl-1H-pyrazole-3-carbonyl}amino)-4-phenylbutyric acid]
≤ 10 | ≤ 1000 | CCCc1cc(C(=O)N[C@H](Cc2ccccc2)[C@@H](O)C(=O)O)nn1Cc1ccc(-c2ccccc2S(=O)(=O)NC(=O)c2cc(C)on2)cc1 [Example 7-5, (2R,3R)-2-Hydroxy-3-[(1-{2′[(5-methylisoxazole-3-carbonyl)sulfamoyl]biphenyl-4-ylmethyl}-5-propyl-1H-pyrazole-3-carbonyl)amino]-4-phenylbutyric acid]
≤ 10 | ≤ 100 | CCCc1cc(C(=O)N[C@@H](CC(=O)O)CC(C)C)nn1Cc1ccc(-c2ccccc2-c2nnn[nH]2)nc1 [Example 14-7, (R)-5-Methyl-3-[(5-propyl-1-{6-[2-(1H-tetrazol-5-yl)-phenyl]-pyridin-3-ylmethyl}-1H-pyrazole-3-carbonyl)-amino]hexanoic acid]
≤ 100 | ≤ 100 | CCCc1cc(C(=O)N[C@H](Cc2ccccc2)[C@@H](O)C(=O)O)nn1Cc1ccc(-c2ccccc2S(=O)(=O)NC(=O)N2CCCC2)cc1 [Example 7-21, (2R,3R)-2-Hydroxy-4-phenyl-3-[(5-propyl-1-{2′-[(pyrrolidine-1-carbonyl)sulfamoyl]biphenyl-4-ylmethyl}-1H-pyrazole-3-carbonyl)amino]butyric acid]
≤ 10 | ≤ 1000 | CCCc1cc(C(=O)N[C@H](Cc2ccccc2)[C@@H](O)C(=O)O)nn1Cc1ccc(-c2ccccc2S(=O)(=O)NC(=O)c2ccccn2)cc1 [Example 7-9, (2R,3R)-2-Hydroxy-4-phenyl-3-[(5-propyl-1-{2′-[(pyridine-2-carbonyl)sulfamoyl]biphenyl-4-ylmethyl}-1H-pyrazole-3-carbonyl)amino]butyric acid]
≤ 10 | ≤ 100 | CCOc1cc(C(=O)N[C@@H](CS)Cc2ccccc2)nn1Cc1ccc(-c2ccccc2S(=O)(=O)NC(C)=O)cc1F [Example 6-1, 1-(2′-Acetylsulfamoyl-3-fluorobiphenyl-4-ylmethyl)-5-ethoxy-1H-pyrazole-3-carboxylic acid ((R)-1-benzyl-2-mercaptoethyl)amide]
≤ 10 | ≤ 100 | CCCc1cc(C(=O)N[C@@H](CS)Cc2ccccc2)nn1Cc1ccc(-c2ccccc2S(=O)(=O)NC(C)=O)c(F)c1 [Example 6-6, 1-(2′-Acetylsulfamoyl-2-fluorobiphenyl-4-ylmethyl)-5-propyl-1H-pyrazole-3-carboxylic acid ((R)-1-benzyl-2-mercaptoethyl)amide]
≤ 10 | ≤ 1000 | CCCc1cc(C(=O)N[C@H](Cc2ccccc2)[C@@H](O)C(=O)O)nn1Cc1ccc(-c2ccccc2-c2nnn[nH]2)cc1 [Example 1, (2R,3R)-3-(1-((2′-(1H-tetrazol-5-yl)biphenyl-4-yl)methyl)-5-propyl-1H-pyrazole-3-carboxamido)-2-hydroxy-4-phenylbutanoic Acid]
≤ 10 | ≤ 1000 | CCCc1cc(C(=O)N[C@@H](CC(=O)O)Cc2ccccc2Cl)nn1Cc1ccc(-c2ccccc2S(=O)(=O)NC(C)=O)cc1 [Example 6-27, (R)-3-{[1-(2′-Acetylsulfamoylbiphenyl-4-ylmethyl)-5-propyl-1H-pyrazole-3-carbonyl]amino}-4-(2-chlorophenyl)butyric acid]
≤ 10 | ≤ 1000 | CCCc1cc(C(=O)N[C@H](Cc2ccccc2)[C@@H](O)C(=O)O)nn1Cc1ccc(-c2ccccc2-c2nnn[nH]2)c(F)c1 [Example 3-10, (2R,3R)-3-(1-((2-Fluoro-2′-(1H-tetrazol-5-yl)biphenyl-4-yl)methyl)-5-propyl-1H-pyrazole-3-carboxamido)-2-hydroxy-4-phenylbutanoic acid]
≤ 10 | ≤ 100 | CCCc1cc(C(=O)N[C@H](Cc2ccccc2)CN(O)C=O)nn1Cc1ccc(-c2ccccc2-c2nnn[nH]2)cc1 [Example 3-14, 5-Propyl-1-[2′-(1H-tetrazol-5-yl)-biphenyl-4-ylmethyl]-1H-pyrazole-3-carboxylic acid [(R)-1-benzyl-2-(formylhydroxyamino)ethyl]amide]
≤ 10 | ≤ 1000 | CCCc1cc(C(=O)N[C@H](Cc2ccccc2)[C@@H](O)C(=O)O)nn1Cc1ccc(-c2ccccc2S(=O)(=O)NC(=O)c2ccccc2)cc1 [Example 7-12, (2R,3R)-3-{[1-(2′-Benzoylsulfamoylbiphenyl-4-ylmethyl)-5-propyl-1H-pyrazole-3-carbonyl]amino}-2-hydroxy-4-phenylbutyric acid]
≤ 10 | ≤ 1000 | CCCc1cc(C(=O)N[C@@H](CC(=O)O)Cc2ccccc2C)nn1Cc1ccc(-c2ccccc2S(=O)(=O)NC(C)=O)cc1 [Example 6-26, (R)-3-{[1-(2′-Acetylsulfamoylbiphenyl-4-ylmethyl)-5-propyl-1H-pyrazole-3-carbonyl]amino}-4-o-tolylbutyric acid]
≤ 100 | ≤ 100 | CCCCc1cc(C(=O)N[C@@H](CS)Cc2ccccc2)nn1Cc1ccc(-c2ccccc2C(=O)O)cc1F [Example 9-4, 4′-[3-((R)-1-Benzyl-2-mercaptoethylcarbamoyl)-5-butylpyrazol-1-ylmethyl]-3′-fluorobiphenyl-2-carboxylic acid]
